Laboratory results from PubChem BioAssay (NCI).
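Grown in 96-well plates, cells were treated for 48 hours with each compound at five concentrations. Insufficient inhibition: endpoint recorded as highest concentration tested. TGI: concentration producing complete growth inhibition.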

What was measured:
Assay in all cases: growth of human tumour cells (NCI), 48 h
RXF-631 renal = system: RXF-631 renal
RPMI-8226 leukemia = system: RPMI-8226 leukemia
HT29 colon = system: HT29 colon
KM12 colon = system: KM12 colon
A498 renal = system: A498 renal
U251 CNS = system: U251 CNS
KM20L2 colon = system: KM20L2 colon
SK-MEL-2 melanoma = system: SK-MEL-2 melanoma
LOX IMVI melanoma = system: LOX IMVI melanoma
MALME-3M melanoma = system: MALME-3M melanoma
UACC-257 melanoma = system: UACC-257 melanoma
786-0 renal = system: 786-0 renal
DMS 273 small cell lung = system: DMS 273 small cell lung
TK-10 renal = system: TK-10 renal
DLD-1 colon = system: DLD-1 colon
K-562 leukemia = system: K-562 leukemia
DMS 114 small cell lung = system: DMS 114 small cell lung
SN12C renal = system: SN12C renal
RXF 393 renal = system: RXF 393 renal
SK-MEL-5 melanoma = system: SK-MEL-5 melanoma
M19-MEL melanoma = system: M19-MEL melanoma
SNB-19 CNS = system: SNB-19 CNS
HOP-92 NSCLC = system: HOP-92 NSCLC
SF-295 CNS = system: SF-295 CNS
HL-60(TB) leukemia = system: HL-60(TB) leukemia
OVCAR-3 ovarian = system: OVCAR-3 ovarian
OVCAR-5 ovarian = system: OVCAR-5 ovarian
CAKI-1 renal = system: CAKI-1 renal
A549 NSCLC = system: A549 NSCLC
HCT-15 colon = system: HCT-15 colon
NCI-H23 lung = system: NCI-H23 lung
IGROV1 ovarian = system: IGROV1 ovarian
UACC-62 melanoma = system: UACC-62 melanoma
OVCAR-8 ovarian = system: OVCAR-8 ovarian
XF 498 CNS = system: XF 498 CNS
LXFL 529 NSCLC = system: LXFL 529 NSCLC
EKVX NSCLC = system: EKVX NSCLC
NCI-H460 lung = system: NCI-H460 lung
NCI-H522 lung = system: NCI-H522 lung
MOLT-4 leukemia = system: MOLT-4 leukemia
HOP-62 NSCLC = system: HOP-62 NSCLC
SF-268 CNS = system: SF-268 CNS
SW-620 colon = system: SW-620 colon
HOP-18 NSCLC = system: HOP-18 NSCLC
CCRF-CEM leukemia = system: CCRF-CEM leukemia
COLO 205 colon = system: COLO 205 colon
OVCAR-4 ovarian = system: OVCAR-4 ovarian
SR leukemia = system: SR leukemia
SNB-75 CNS = system: SNB-75 CNS
UO-31 renal = system: UO-31 renal
NCI-H226 lung = system: NCI-H226 lung
HCT-116 colon = system: HCT-116 colon
SK-OV-3 ovarian = system: SK-OV-3 ovarian
SF-539 CNS = system: SF-539 CNS
M14 melanoma = system: M14 melanoma

Measured: TGI

O=C1C(c2ccccc2)=C(c2ccccc2)C(c2ccc(-c3ccc(C4=C(c5ccccc5)C(=O)C(c5ccccc5)=C4c4ccccc4)cc3)cc2)=C1c1ccccc1
> 100 µM: all assays above
